Where two headings read alike, the source gives them in different places.
What was measured:
[1] = target: T1, MELK (Homo sapiens, UniProt Q14680); assay: Z’-LYTE enzymatic assay; type: biochemical
[2] = target: GSK3A (Homo sapiens, UniProt P49840); assay: Z’-LYTE enzymatic assay; conditions: Z’-LYTE assay at [ATP]=apparent Km; read-out: Biochemical IC50 GSK3A
[3] = target: CDK7 (Homo sapiens, UniProt P50613); assay: Adapta kinase assay; conditions: Adapta assay at [ATP]=apparent Km; read-out: Biochemical IC50 CDK7
[4] = target: mTOR (Homo sapiens, UniProt P42345); assay: Z’-LYTE enzymatic assay; conditions: Z’-LYTE assay at [ATP]=apparent Km; read-out: Biochemical IC50 mTOR
[5] = target: T1, MELK; assay: KINOMEscan MELK pull-down; type: binding
Protocol: Based on biochemical (KINOMEscan) and cellular (KiNativ) kinase profiling of our in-house library of structurally diverse ATP-competitive kinase inhibitors, we identified several chemotypes that were prioritized for further characterization and development. In particular, we focused on JW-7-25-1 (Figure 1A), a benzonaphthyridinone derivative that inhibited MELK pull-down by 100% (KINOMEscan) at 10 μM.

[6] = test system: MDA-MB-468; assay: Cell proliferation assay (CellTiter-Glo); conditions: Homo sapiens
[7] = test system: ZR-75-1; assay: Cell proliferation assay (CellTiter-Glo); conditions: Homo sapiens, ZR-75-1, 72 h, read-out: 3-day antiproliferative IC50
[8] = test system: Flt3; set-up: method as in Johnson et al., 2015; conditions: ref Johnson et al., 2015; cited from earlier work
[9] = target: T1, MELK; assay: Inhibitor-induced MELK degradation, immunoblot; conditions: MDA-MB-468 cells; pretreatment carfilzomib (400 nM) or MLN4924 (1 μM) 4 hours, then MELK inhibitor 4 hours
[10] = test system: T-47D; assay: Cell proliferation assay (CellTiter-Glo); conditions: Homo sapiens, T47D
[11] = test system: BT-549; assay: Cell proliferation assay (CellTiter-Glo); conditions: Homo sapiens
[12] = test system: MDA-MB-468 (second source); assay: Cell proliferation assay (CellTiter-Glo); conditions: Homo sapiens, MDA-MB-468, 168 h, read-out: 7-day antiproliferative IC50
[13] = test system: MCF7; assay: Cell proliferation assay (CellTiter-Glo); conditions: Homo sapiens
[14] = test system: HCC70; assay: Cell proliferation assay (CellTiter-Glo); conditions: Homo sapiens
[15] = test system: FKBP12^F36V-MELK(sg3R); assay: dTAG-induced degradation, immunoblot; type: cell-based; conditions: MELK−/− MDA-MB-468-FKBP12^F36V-MELK(sg3R) cells; for duration of sustained degradation of FKBP12^F36V-MELK(sg3R): 500 nM
Protocol: (§1) Four dTAG molecules (7, 13, 36 and 47) that vary in linker length and chemical structure were tested for their efficiency at depleting FKBP12^F36V-MELK(sg3R) (Figure 4A, Figure 4—figure supplement 3).
Figure 4. […] (A) Chemical structure of heterobifunctional dTAG molecule dTAG-47. See also Figure 4—figure supplement 3 for the chemical structures of dTAG-7, dTAG-13 and dTAG-36. (B) Immunoblots for MELK and GAPDH after treatment of dTAG-7, 13, 36, and 47 at indicated concentrations in MELK−/− MDA-MB-468-FKBP12^F36V-MELK(sg3R) cells for 4 hours. See Figure 4—figure supplement 1 for details of the generation of MELK−/− MDA-MB-468-FKBP12^F36V-MELK(sg3R) clones. (C) Same as in 4B, but with treatment at 500 nM and extended treatment times for 14, 24, 48, and 72 hours. (D) Changes in abundance of 7270 proteins (peptide count ≥2) comparing MELK−/− MDA-MB-468-FKBP12^F36V-MELK cells treated with dTAG-7 (250 nM) or DMSO for 1 hour, versus p-value (dTAG-7: triplicate, DMSO: duplicate, limma moderated t-test). See also Figure 4—source datas 1 and 2 for the original and the processed data. (E) Crystal violet staining image showing parental MDA-MB-468 cells and MELK−/− MDA-MB-468-FKBP12^F36V-MELK(sg3R) cells after treatment with DMSO or 500 nM of dTAG-47 for 9 days. Immunoblots showing MELK and GAPDH from a duplicate plate on Day 9 confirmed sustained depletion of FKBP12^F36V-MELK(sg3R). These are representative data from one of two independent experiments. Figure 4—source data 1. Raw integrated ion intensities from quantitative multiplexed proteomics. Figure 4—source data 2. Processed Data and Statistical Analysis by limma (topTable). Figure 4—figure supplement 1. Single clones selected from MDA-MB-468-FKBP12^F36V-MELK(sg3R) cells subject to CRISPR/Cas9-mediated knockout of endogenous MELK. Immunoblots for MELK and GAPDH in single cell clones selected from MDA-MB-468-FKBP12^F36V-MELK(sg3R) transfected with Cas9/sgMELK-3 to knockout endogenous MELK. Clone 1D4 is clone 1 and clone 1A3 is clone 2 in Figure 4. Clone 1D4 was confirmed with heterozygous −1 and +1 indels; clone 1A3 was confirmed with homozygous −1 deletions. [drawing 5] Figure 4—figure supplement 2. […] (A) Immunoblots for MELK, cyclin B1 and GAPDH in asynchronous versus M-phase arrested MDA-MB-468 cells and MDA-MB-468-FKBP12^F36V-MELK(sg3R) cells (clone 1). […] Chemical structures of dTAG molecules. FKBP12^F36V-binding ligands conjugated by variable linkers to thalidomide or pomalidomide, including (A) dTAG-7, (B) dTAG-13 and (C) dTAG-36 are capable of inducing degradation of FKBP12^F36V-tagged proteins of interest. [drawing 7]

[16] = test system: MELK−/− MDA-MB-468-FKBP12^F36V-MELK(sg3R) cells; assay: 9-day proliferation assay, crystal violet staining; type: cell-based; conditions: 500 nM, 9 days, two clones
Protocol: as §1
Figure 4. […] (A) Chemical structure of heterobifunctional dTAG molecule dTAG-47. See also Figure 4—figure supplement 3 for the chemical structures of dTAG-7, dTAG-13 and dTAG-36. (B) Immunoblots for MELK and GAPDH after treatment of dTAG-7, 13, 36, and 47 at indicated concentrations in MELK−/− MDA-MB-468-FKBP12^F36V-MELK(sg3R) cells for 4 hours. See Figure 4—figure supplement 1 for details of the generation of MELK−/− MDA-MB-468-FKBP12^F36V-MELK(sg3R) clones. (C) Same as in 4B, but with treatment at 500 nM and extended treatment times for 14, 24, 48, and 72 hours. (D) Changes in abundance of 7270 proteins (peptide count ≥2) comparing MELK−/− MDA-MB-468-FKBP12^F36V-MELK cells treated with dTAG-7 (250 nM) or DMSO for 1 hour, versus p-value (dTAG-7: triplicate, DMSO: duplicate, limma moderated t-test). See also Figure 4—source datas 1 and 2 for the original and the processed data. (E) Crystal violet staining image showing parental MDA-MB-468 cells and MELK−/− MDA-MB-468-FKBP12^F36V-MELK(sg3R) cells after treatment with DMSO or 500 nM of dTAG-47 for 9 days. […] Raw integrated ion intensities from quantitative multiplexed proteomics. […]

[17] = MDA-MB-468, 72 h, read-out: 3-day antiproliferative IC50
[18] = MDA-MB-468, 168 h, read-out: 7-day antiproliferative IC50
[19] = 72 h, read-out: 3-day antiproliferative IC50
[20] = 168 h, read-out: 7-day antiproliferative IC50
[21] = BT-549, 72 h, read-out: 3-day antiproliferative IC50
[22] = BT-549, 168 h, read-out: 7-day antiproliferative IC50
[23] = MCF7, 72 h, read-out: 3-day antiproliferative IC50
[24] = HCC70, 72 h, read-out: 3-day antiproliferative IC50
[25] = HCC70, 168 h, read-out: 7-day antiproliferative IC50

T1 sequence (Q14680 whole entry): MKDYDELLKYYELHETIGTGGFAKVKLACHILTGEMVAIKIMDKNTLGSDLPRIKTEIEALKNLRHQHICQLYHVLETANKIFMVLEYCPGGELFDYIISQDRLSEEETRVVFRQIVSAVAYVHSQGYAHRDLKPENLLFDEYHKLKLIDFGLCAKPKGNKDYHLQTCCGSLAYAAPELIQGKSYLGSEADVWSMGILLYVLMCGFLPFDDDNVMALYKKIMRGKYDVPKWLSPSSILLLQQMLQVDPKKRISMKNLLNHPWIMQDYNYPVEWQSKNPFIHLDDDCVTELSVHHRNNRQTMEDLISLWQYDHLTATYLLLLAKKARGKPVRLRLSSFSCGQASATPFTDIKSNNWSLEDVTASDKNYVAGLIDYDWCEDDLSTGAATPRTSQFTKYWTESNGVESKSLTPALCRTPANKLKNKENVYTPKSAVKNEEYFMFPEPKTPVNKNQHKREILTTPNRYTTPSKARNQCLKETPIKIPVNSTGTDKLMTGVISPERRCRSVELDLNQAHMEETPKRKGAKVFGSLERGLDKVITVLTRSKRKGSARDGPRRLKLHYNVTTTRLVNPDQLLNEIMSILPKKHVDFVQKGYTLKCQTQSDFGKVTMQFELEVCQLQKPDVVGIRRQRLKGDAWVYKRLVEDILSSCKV
Chain of CDK7 (P50613 whole entry): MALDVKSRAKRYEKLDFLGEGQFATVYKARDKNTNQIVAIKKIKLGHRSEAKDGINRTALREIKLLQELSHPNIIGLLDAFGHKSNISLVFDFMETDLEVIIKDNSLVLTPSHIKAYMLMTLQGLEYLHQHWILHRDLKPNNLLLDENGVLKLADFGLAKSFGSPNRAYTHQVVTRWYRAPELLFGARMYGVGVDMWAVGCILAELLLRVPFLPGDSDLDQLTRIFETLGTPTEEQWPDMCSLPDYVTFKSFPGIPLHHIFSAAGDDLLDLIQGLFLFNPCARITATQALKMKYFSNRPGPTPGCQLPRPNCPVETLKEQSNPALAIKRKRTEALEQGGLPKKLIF
Chain of CDK7 (P51946 whole entry partner): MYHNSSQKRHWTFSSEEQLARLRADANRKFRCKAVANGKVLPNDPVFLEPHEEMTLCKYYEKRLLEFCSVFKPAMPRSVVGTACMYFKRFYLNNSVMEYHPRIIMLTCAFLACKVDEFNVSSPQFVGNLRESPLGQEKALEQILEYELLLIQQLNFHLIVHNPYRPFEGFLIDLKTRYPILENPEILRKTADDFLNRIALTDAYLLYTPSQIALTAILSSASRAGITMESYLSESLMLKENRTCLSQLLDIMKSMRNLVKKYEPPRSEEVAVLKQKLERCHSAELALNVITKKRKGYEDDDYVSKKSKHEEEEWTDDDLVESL
Chain of CDK7 (P51948 whole entry partner): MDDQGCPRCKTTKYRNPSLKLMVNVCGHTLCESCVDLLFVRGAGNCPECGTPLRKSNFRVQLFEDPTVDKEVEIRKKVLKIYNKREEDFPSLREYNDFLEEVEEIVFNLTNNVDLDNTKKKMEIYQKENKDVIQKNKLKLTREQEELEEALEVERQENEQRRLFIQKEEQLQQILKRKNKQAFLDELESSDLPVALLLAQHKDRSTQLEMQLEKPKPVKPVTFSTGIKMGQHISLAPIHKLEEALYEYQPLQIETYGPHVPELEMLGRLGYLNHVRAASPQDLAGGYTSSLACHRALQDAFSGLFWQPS
Chain of GSK3A (P49840 whole entry): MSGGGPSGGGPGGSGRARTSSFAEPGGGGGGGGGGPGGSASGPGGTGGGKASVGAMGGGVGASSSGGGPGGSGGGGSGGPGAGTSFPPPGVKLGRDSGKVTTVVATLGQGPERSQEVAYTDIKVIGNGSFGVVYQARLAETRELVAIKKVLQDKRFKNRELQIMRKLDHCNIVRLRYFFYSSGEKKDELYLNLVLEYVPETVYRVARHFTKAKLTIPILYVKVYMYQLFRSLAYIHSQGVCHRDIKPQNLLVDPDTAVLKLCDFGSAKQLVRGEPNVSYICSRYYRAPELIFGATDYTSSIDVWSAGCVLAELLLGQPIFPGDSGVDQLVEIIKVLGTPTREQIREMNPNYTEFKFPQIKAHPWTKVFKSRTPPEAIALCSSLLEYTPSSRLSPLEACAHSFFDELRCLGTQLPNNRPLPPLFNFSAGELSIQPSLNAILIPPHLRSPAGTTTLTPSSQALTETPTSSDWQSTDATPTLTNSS

O=c1ccc2cnc3ccc(-c4ccc(O)cc4)cc3c2n1-c1ccc(N2CCNCC2)c(C(F)(F)F)c1 [JW-7-25-1]
IC50 ([1]; Z’-LYTE assay at [ATP]=apparent Km, read-out: Biochemical IC50 MELK): 5 nM
IC50 [2]: 12.3 nM
IC50 [3]: 63.4 nM
IC50 [4]: 5.5 nM
inhibition at 10 µM [5]: 100%

COc1cc(-c2cn[nH]c2)ccc1C(=O)Nc1ccc2c(c1)CCNCC2 [MELK-T1]
IC50 [6, 17]: > 10000 nM
IC50 [7]: > 10000 nM
IC50 [8]: 18 nM

NS(=O)(=O)OC[C@@H]1C[C@@H](n2ccc3c(N[C@H]4CCc5ccccc54)ncnc32)C[C@@H]1O [MLN4924]
rescue of inhibitor-induced MELK degradation by pretreatment [9]: minimal effect

CC1(C)C(=O)N([C@H]2CCc3c(O)cccc32)c2nc(Nc3cccc(CN4CCCC4)c3)ncc21 [MRT199665]
IC50 [6, 17]: 580 nM
IC50 [6, 18]: 160 nM
IC50 [10, 19]: 5890 nM
IC50 [10, 20]: 620 nM
IC50 [7]: 4830 nM
IC50 [11, 21]: 400 nM
IC50 [11, 22]: 310 nM
IC50 [12]: 910 nM
IC50 [13, 23]: 440 nM
IC50 [14, 24]: 390 nM
IC50 [14, 25]: 75 nM

CN1CCN(c2ccc(-n3cc(-c4ccncc4OCC4CCNCC4)cn3)cc2)CC1 [NVS-MELK8a]
IC50 [6, 17]: 5410 nM
IC50 [6, 18]: 2960 nM
IC50 [10, 19]: > 10000 nM
IC50 [10, 20]: 4900 nM
IC50 ([1]; Biochemical IC50 MELK, Z’-LYTE assay at [ATP]=apparent Km): 11.9 nM
IC50 ([1]; Note: MELK IC50, note column of Table 3): 11.9 nM
IC50 ([1]; Potency (MELK), measured by Z’LYTE biochemical assay, class symbols in Figure 2C): < 20 nM
IC50 [7]: > 10000 nM
IC50 [11, 21]: 8050 nM
IC50 [11, 22]: 4980 nM
IC50 [12]: 8400 nM
IC50 [13, 23]: 6060 nM
IC50 ([13]; MCF7, 168 h, read-out: 7-day antiproliferative IC50): 2810 nM
IC50 [14, 24]: 5990 nM
IC50 [14, 25]: 4170 nM

CC(C)C[C@H](NC(=O)[C@H](CCc1ccccc1)NC(=O)CN1CCOCC1)C(=O)N[C@@H](Cc1ccccc1)C(=O)N[C@@H](CC(C)C)C(=O)[C@@]1(C)CO1 [carfilzomib]
rescue of inhibitor-induced MELK degradation by pretreatment [9]: prevented degradation

CCC(C(=O)N1CCCCC1C(=O)OC(CCc1ccc(OC)c(OC)c1)c1ccccc1OCC(=O)NCCCCCCOc1cccc2c1C(=O)N(C1CCC(=O)NC1=O)C2=O)c1cc(OC)c(OC)c(OC)c1 (stereo not shown) [dTAG-13]
duration of sustained degradation of FKBP12^F36V-MELK(sg3R) [15]: up to 72 hours
time to efficient depletion of FKBP12^F36V-MELK(sg3R) [15]: ≤ 4 h

CC[C@H](C(=O)N1CCCC[C@H]1C(=O)O[C@H](CCc1ccc(OC)c(OC)c1)c1ccccc1OCC(=O)NCCCCCCCCNc1cccc2c1C(=O)N(C1CCC(=O)NC1=O)C2=O)c1cc(OC)c(OC)c(OC)c1 (stereo partly drawn) [dTAG-36, (2S)-(1R)−3-(3,4-dimethoxyphenyl)−1-(2-(2-((8-((2-(2,6-dioxopiperidin-3-yl)−1,3-dioxoisoindolin-4-yl)amino)octyl)amino)−2-oxoethoxy)phenyl)propyl 1-((S)−2-(3,4,5-trimethoxyphenyl)butanoyl)piperidine-2-carboxylate]
duration of sustained degradation of FKBP12^F36V-MELK(sg3R) [15]: up to 72 hours
time to efficient depletion of FKBP12^F36V-MELK(sg3R) [15]: ≤ 4 h

CC[C@H](C(=O)N1CCCC[C@H]1C(=O)O[C@H](CCc1ccc(OC)c(OC)c1)c1ccccc1OCC(=O)NCCCCCCCCNc1ccc2c(c1)C(=O)N(C1CCC(=O)NC1=O)C2=O)c1cc(OC)c(OC)c(OC)c1 (stereo partly drawn) [dTAG-47, (2S)-(1R)−3-(3,4-dimethoxyphenyl)−1-(2-(2-((8-((2-(2,6-dioxopiperidin-3-yl)−1,3-dioxoisoindolin-5-yl)amino)octyl)amino)−2-oxoethoxy)phenyl)propyl 1-((S)−2-(3,4,5-trimethoxyphenyl)butanoyl)piperidine-2-carboxylate]
growth in 9-day proliferation assay [16]: neither of the FKBP12^F36V-MELK(sg3R) MELK−/− clones exhibited growth impairment
duration of sustained degradation of FKBP12^F36V-MELK(sg3R) [15]: up to 72 hours
time to efficient depletion of FKBP12^F36V-MELK(sg3R) [15]: ≤ 4 h
